Experimental data published in article PMC7486443, “Generation of Phenothiazine with Potent Anti-TLK1 Activity for Prostate Cancer Therapy” (iScience, 2020).

Columns and labels:
Experiment in all cases: biochemical
Parameters in all cases: DiscoverX KINOMEscan scanMAX competition binding panel, single concentration, percent of control; remaining binding: dose or concentration left out as unconfirmed
Settings in all cases: KINOMEscan binding, percent of control; read-out: Table S4_SCANMAX REPORT - related to Fig. 1 / Percent Control
MTOR = MTOR (Homo sapiens, UniProt P42345)
Description: (§1) Certain PTH are potent inhibitors of TLK1 ([Ronald et al., 2013]), and by inference TLK2, as these proteins must homo- and hetero-dimerize for full activation ([Mortuza et al., 2018]), in addition to being highly similar in sequence and structure, and thus similarly targetable. […] Two noteworthy observations are that PTHs are structurally different from many known ATP competitive inhibitors, and that J54 was carefully designed based on considerations reported previously for the THD—the Kinomescan has confirmed that J54 is specific to TLKs. We should point out that although PTH were the first reported inhibitors of TLKs ([Ronald et al., 2013]), other inhibitors particularly of TLK2 have since been reported ([Kim et al., 2016]), some based on structure docking ([Mortuza et al., 2018]), although neither their potency and effects in vivo nor their potential off-target effects have not been reported as they were selected from libraries of kinase inhibitors. Supplementary file mmc2.xlsx: Table S4. SCANMAX Table, Related to Figure 1 Kinomescan of J54 inhibitory activity on human kinases.

WNK1 = WNK1 (Homo sapiens, UniProt Q9H4A3)
Description: as §1

CDKL5 = CDKL5 (Homo sapiens, UniProt O76039)
Description: as §1

NDR2 = biological target: T1, NDR2 (Homo sapiens, UniProt Q9Y2H1)
T1 construct: gene STK38L
Description: as §1

GRK7 = GRK7 (Homo sapiens, UniProt Q8WTQ7)
Description: as §1

MEK3 = biological target: T2, MEK3 (Homo sapiens, UniProt P46734)
T2 construct: gene MAP2K3
Description: as §1

PIK3C2B = PIK3C2B (Homo sapiens, UniProt O00750)
Description: as §1

PIK3CA(H1047L) = PIK3CA(H1047L) (Homo sapiens, UniProt P42336, H1047L)
Description: as §1

PIK3CA(E545K) = PIK3CA(E545K) (Homo sapiens, UniProt P42336, E545K)
Description: as §1

CSNK1D = CSNK1D (Homo sapiens, UniProt P48730)
Description: as §1

BRSK2 = BRSK2 (Homo sapiens, UniProt Q8IWQ3)
Description: as §1

YES = biological target: T3, YES (Homo sapiens, UniProt P07947)
T3 construct: gene YES1
Description: as §1

BIKE = biological target: T4, BIKE (Homo sapiens, UniProt Q9NSY1)
T4 construct: gene BMP2K
Description: as §1

HIPK2 = HIPK2 (Homo sapiens, UniProt Q9H2X6)
Description: as §1

TBK1 = TBK1 (Homo sapiens, UniProt Q9UHD2)
Description: as §1

FER = FER (Homo sapiens, UniProt P16591)
Description: as §1

MET = MET (Homo sapiens, UniProt P08581)
Description: as §1

AAK1 = AAK1 (Homo sapiens, UniProt Q2M2I8)
Description: as §1

FLT3(K663Q) = FLT3(K663Q) (Homo sapiens, UniProt P36888, K663Q)
Description: as §1

Sequence of GRK7 (Q8WTQ7 whole entry): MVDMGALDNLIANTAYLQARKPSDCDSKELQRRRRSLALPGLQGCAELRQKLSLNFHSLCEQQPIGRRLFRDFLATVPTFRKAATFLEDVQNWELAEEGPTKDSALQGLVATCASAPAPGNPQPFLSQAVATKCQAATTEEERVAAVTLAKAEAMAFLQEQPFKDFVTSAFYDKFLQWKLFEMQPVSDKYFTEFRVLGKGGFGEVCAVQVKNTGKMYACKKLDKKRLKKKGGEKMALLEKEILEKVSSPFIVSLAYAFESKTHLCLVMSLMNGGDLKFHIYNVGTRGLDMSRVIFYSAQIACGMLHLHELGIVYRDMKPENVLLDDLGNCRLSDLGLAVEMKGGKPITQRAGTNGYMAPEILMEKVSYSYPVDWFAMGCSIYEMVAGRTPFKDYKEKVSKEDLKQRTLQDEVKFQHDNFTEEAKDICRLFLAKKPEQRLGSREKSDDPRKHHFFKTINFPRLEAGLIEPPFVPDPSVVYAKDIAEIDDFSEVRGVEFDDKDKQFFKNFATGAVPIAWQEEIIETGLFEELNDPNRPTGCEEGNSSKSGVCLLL
Sequence of PIK3C2B (O00750 whole entry): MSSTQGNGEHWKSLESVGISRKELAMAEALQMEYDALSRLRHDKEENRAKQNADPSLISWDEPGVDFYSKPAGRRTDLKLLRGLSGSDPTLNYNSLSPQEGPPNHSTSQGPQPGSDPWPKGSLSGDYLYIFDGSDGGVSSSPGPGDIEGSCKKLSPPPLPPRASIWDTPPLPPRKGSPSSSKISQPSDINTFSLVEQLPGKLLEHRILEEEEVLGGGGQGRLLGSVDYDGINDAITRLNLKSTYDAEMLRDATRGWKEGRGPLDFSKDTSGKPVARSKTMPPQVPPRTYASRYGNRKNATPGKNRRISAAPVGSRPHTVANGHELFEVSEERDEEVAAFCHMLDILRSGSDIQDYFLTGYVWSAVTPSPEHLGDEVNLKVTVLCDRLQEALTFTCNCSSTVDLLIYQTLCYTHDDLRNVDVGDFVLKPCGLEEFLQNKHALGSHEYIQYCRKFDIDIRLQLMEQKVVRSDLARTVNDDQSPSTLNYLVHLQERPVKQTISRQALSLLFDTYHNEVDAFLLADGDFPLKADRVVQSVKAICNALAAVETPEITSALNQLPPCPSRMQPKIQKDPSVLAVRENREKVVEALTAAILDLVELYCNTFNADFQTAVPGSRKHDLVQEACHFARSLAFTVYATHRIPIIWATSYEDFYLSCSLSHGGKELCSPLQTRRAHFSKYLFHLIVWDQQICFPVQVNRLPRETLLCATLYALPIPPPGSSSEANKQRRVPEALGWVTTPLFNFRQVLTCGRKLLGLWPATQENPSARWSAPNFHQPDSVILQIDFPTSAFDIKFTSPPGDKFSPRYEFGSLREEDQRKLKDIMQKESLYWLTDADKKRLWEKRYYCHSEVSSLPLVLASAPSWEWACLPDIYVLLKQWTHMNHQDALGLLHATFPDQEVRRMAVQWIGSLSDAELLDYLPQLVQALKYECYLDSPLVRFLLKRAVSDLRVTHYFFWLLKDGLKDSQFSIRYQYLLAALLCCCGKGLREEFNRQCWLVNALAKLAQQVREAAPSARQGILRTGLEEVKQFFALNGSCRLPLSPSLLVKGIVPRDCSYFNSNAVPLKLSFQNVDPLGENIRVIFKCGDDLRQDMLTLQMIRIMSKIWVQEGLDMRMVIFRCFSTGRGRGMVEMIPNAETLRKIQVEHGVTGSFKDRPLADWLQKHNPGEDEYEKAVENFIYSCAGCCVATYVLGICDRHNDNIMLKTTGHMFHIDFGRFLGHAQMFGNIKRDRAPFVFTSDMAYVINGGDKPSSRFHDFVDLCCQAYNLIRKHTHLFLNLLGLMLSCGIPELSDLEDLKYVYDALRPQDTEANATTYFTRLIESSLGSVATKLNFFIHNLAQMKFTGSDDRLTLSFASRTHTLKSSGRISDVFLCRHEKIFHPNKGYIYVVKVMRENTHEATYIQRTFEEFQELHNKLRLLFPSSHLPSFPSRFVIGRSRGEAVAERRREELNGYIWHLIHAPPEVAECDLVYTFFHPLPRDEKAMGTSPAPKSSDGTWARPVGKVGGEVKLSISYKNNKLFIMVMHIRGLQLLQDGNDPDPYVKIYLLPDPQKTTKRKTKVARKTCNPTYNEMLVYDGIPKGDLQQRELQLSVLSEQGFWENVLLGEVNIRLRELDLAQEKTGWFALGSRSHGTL
Sequence of FER (P16591 whole entry): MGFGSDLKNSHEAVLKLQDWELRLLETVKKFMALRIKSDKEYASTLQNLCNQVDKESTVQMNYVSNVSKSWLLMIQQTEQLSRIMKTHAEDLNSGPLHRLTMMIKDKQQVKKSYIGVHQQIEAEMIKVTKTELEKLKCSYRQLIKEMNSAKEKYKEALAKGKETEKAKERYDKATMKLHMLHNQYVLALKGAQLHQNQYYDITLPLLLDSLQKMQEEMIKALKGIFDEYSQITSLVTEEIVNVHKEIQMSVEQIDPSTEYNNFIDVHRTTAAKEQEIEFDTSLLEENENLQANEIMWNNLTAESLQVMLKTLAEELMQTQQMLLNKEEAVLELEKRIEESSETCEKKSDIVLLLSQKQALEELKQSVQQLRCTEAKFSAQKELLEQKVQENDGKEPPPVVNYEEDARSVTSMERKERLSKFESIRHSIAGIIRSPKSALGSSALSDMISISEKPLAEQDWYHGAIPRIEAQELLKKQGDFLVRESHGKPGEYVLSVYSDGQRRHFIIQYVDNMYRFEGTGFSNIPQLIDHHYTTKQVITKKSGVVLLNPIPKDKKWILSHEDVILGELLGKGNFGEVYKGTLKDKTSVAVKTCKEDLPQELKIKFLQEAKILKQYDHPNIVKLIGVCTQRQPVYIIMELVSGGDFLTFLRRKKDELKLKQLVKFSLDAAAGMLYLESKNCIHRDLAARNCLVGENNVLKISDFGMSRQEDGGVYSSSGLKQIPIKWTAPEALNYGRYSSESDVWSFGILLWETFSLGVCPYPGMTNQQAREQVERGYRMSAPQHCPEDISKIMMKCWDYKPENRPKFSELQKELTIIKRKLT
Sequence of BRSK2 (Q8IWQ3 whole entry): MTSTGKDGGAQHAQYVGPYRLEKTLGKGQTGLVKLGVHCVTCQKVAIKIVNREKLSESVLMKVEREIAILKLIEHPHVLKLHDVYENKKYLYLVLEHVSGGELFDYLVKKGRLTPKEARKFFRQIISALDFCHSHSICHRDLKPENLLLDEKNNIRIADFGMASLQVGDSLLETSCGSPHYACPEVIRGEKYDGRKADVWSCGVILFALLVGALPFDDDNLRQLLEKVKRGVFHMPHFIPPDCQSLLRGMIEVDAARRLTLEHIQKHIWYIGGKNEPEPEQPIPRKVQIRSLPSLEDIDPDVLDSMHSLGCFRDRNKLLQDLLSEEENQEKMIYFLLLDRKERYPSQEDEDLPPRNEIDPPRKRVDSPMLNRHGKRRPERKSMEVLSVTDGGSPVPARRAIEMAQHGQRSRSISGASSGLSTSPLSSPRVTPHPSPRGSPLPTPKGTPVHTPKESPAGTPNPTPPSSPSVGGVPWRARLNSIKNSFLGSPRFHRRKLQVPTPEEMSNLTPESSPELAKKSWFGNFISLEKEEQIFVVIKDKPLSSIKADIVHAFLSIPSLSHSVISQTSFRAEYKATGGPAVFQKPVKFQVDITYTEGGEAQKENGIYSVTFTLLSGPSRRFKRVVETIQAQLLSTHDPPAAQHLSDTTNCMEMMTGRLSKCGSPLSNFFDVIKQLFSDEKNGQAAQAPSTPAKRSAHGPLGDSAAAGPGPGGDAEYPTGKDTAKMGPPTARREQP
Sequence of TBK1 (Q9UHD2 whole entry): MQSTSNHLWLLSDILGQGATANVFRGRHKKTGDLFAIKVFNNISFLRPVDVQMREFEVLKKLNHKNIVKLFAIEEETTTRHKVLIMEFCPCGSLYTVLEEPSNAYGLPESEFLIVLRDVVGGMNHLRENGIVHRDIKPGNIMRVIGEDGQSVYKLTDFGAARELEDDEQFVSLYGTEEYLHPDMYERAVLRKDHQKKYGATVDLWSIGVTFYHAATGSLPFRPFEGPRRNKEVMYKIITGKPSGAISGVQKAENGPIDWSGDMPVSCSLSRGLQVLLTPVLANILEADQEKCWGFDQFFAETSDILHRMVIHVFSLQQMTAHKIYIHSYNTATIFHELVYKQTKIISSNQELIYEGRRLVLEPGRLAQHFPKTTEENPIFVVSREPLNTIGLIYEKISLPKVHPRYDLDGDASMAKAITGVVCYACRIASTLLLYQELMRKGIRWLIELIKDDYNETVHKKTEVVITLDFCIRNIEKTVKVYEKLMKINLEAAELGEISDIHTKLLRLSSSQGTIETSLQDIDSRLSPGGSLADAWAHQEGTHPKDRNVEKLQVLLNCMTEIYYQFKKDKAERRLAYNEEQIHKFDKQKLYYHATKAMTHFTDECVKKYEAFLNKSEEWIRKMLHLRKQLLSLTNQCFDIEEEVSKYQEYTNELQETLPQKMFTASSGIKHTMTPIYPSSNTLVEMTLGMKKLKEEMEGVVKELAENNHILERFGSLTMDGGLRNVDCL
T1 sequence (Q9Y2H1 whole entry): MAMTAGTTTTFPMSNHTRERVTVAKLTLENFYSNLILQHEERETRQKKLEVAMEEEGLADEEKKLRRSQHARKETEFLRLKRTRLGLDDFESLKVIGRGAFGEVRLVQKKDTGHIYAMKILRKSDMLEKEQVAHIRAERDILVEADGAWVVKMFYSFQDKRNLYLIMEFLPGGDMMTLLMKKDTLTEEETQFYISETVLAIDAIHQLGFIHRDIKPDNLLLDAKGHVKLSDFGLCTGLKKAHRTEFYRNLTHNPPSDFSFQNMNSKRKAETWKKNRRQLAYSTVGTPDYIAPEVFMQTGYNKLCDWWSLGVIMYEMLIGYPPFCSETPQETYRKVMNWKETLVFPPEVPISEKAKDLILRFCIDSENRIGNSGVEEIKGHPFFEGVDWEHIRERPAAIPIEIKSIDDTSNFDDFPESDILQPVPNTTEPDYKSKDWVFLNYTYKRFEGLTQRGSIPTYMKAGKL

c1ccc2c(c1)Sc1ccccc1N2CCN1CCOCC1 [J54]
remaining binding at 15 µM (MTOR): 100% | remaining binding (WNK1): 94% | remaining binding (CDKL5): 100% | remaining binding (NDR2): 100% | remaining binding (GRK7): 100% | remaining binding (MEK3): 100% | remaining binding (PIK3C2B): 96% | remaining binding (PIK3CA(H1047L)): 100% | remaining binding (PIK3CA(E545K)): 100% | remaining binding (CSNK1D): 95% | remaining binding (BRSK2): 100% | remaining binding (YES): 100% | remaining binding (BIKE): 52% | remaining binding (HIPK2): 100% | remaining binding (TBK1): 89% | remaining binding (FER): 100% | remaining binding (MET): 92% | remaining binding (AAK1): 80% | remaining binding (FLT3(K663Q)): 94%
